Results: paper PMC9241942 (Microbiology Spectrum, 2022)

Legend:
[1] = Fecal vancomycin levels in original clinical stool samples of healthy volunteers, HPLC-PDA at 205 nm; format: in vivo, human; settings: for Vancomycin concn, Aliquot 3 / Vancomycin concn, Aliquot 2: original stool
Method: (§1) An aliquot of stool and 1 mL of extraction solvent (acetonitrile and water, 10:90 [vol/vol], 0.1% TFA) was added into 2-mL centrifuge tube and shaken (Vortex-Genie 2 Shaker, Scientific Industries, USA) for 10 s, ultrasonicated for 5 min (Multool ultrasonic cleaner, Model: TH-030A), and centrifuged at 10,000 g for 3 min (Centrifuge 5804 R, Eppendorf). The supernatant was collected and diluted by 10-fold using the extraction solvent and was stored at −80°C prior to HPLC analysis.
(§2) The mobile phase consisted of a mixture of acetonitrile and water, (10:90 [v:v], 0.1% TFA). The flow rate and the temperature of column oven were set at 0.3 mL/min and 40°C, respectively.
(§3) Differences in concentrations were compared by RSD.

[2] = Fecal vancomycin levels in lyophilized clinical stool samples, HPLC, with water correction; format: in vivo, human
Method: as §1, §2, §3

[3] = Vancomycin stability in clinical stool samples over time (inter-day); format: in vitro ADME, human; settings: for Day 0, vancomycin concn: first assay; for Day 0, vancomycin concn / Day 48, vancomycin concn: Mean ± SD, identical aliquots n = 3, SD; for Day 48, vancomycin concn: second assay after storage
Method: as §1, §2, §3

[4] = Comparison with orthophosphoric acid-based extraction method (Berthoin et al. 2009), total fecal vancomycin by HPLC; format: in vivo, human
Method: Briefly, six samples were chosen with two aliquots were prepared for each sample. The aliquots were mixed with 971 μL of water and 29 μL of 85% orthophosphoric acid according to the composition of orthophosphoric acid-based extraction solvent developed by Berthoin et al. (2009) ([17]).

[5] = cited from earlier work
Source text: The goal of the human microbiome project (HMP) is to characterize the human microbiome and analyze its role in health and disease ([1]). The HMP has advanced science on the systems biology of the gut microbiome, the most diverse and abundant microbiome in the human body. By far, the largest contributor to immediate changes in the human gut microbiome are broad spectrum antimicrobials that are excreted via the gastrointestinal tract. To be able to properly study the effect of antimicrobials on the gut microbiome, pharmacokinetic studies using validated assays in the correct biologic matrix will ... || During the phase I clinical trial mentioned above, the pharmacokinetics of ibezapolstat was evaluated using a commercial laboratory. They required the entire stool in order to homogenize the sample for accurate pharmacokinetics results as the heterogeneity of antibiotics in stool samples has not been studied. This differs from blood, urine, or other matrices in which an almost constant supply is present. However, as bowl movements only occur once per day or less, use of an entire sample for pharmacokinetic analyses excludes other microbiome evaluations from that particular day or time-period. ...

[6] = cited from earlier work; remark: listed apart in the source
Source text: The goal of the human microbiome project (HMP) is to characterize the human microbiome and analyze its role in health and disease ([1]). The HMP has advanced science on the systems biology of the gut microbiome, the most diverse and abundant microbiome in the human body. By far, the largest contributor to immediate changes in the human gut microbiome are broad spectrum antimicrobials that are excreted via the gastrointestinal tract. […] Moreover, the quantitative range of our new method ( ...

CN[C@H](CC(C)C)C(=O)N[C@H]1C(=O)N[C@@H](CC(N)=O)C(=O)N[C@H]2C(=O)N[C@H]3C(=O)N[C@H](C(=O)N[C@H](C(=O)O)c4cc(O)cc(O)c4-c4cc3ccc4O)[C@H](O)c3ccc(c(Cl)c3)Oc3cc2cc(c3O[C@@H]2O[C@H](CO)[C@@H](O)[C@H](O)[C@H]2O[C@H]2C[C@](C)(N)[C@H](O)[C@H](C)O2)Oc2ccc(cc2Cl)[C@H]1O [vancomycin]
persistence of vancomycin in stool after end of dosing (in words) ([1]; healthy volunteers, oral 125 mg 4 times daily for 10 days): persists for several days following the end of the 10-day dosing regimen | vancomycin concentration in the diluted fecal extract solution ([1]; original clinical sample 9, fecal extract diluted by 10-fold, 205 nm): 20.1 µg/mL | Vancomycin concn, Aliquot 3 ([1]; sample 5, subject H, day 5, oral 125 mg 4 times daily for 10 days, wet wt 33.0 mg): 259 (33.0) μg/g | Vancomycin concn, Aliquot 2 ([1]; sample 5, subject H, day 5, oral 125 mg 4 times daily for 10 days, wet wt 52.9 mg): 259 (52.9) μg/g | Vancomycin concn, Aliquot 2 ([1]; sample 6, subject E, day 8, oral 125 mg 4 times daily for 10 days, wet wt 40.7 mg): 2033 (40.7) μg/g | Vancomycin concn, Aliquot 3 ([1]; sample 6, subject E, day 8, oral 125 mg 4 times daily for 10 days, wet wt 106.5 mg): 1660 (106.5) μg/g | Vancomycin concn, Aliquot 3 ([1]; sample 7, subject F, day 8, oral 125 mg 4 times daily for 10 days, wet wt 48.1 mg): 2057 (48.1) μg/g | Vancomycin concn, Aliquot 2 ([1]; sample 7, subject F, day 8, oral 125 mg 4 times daily for 10 days, wet wt 55.7 mg): 1877 (55.7) μg/g | Vancomycin concn, Aliquot 3 ([1]; sample 8, subject E, day 9, oral 125 mg 4 times daily for 10 days, wet wt 61.5 mg): 1920 (61.5) μg/g | Vancomycin concn, Aliquot 2 ([1]; sample 8, subject E, day 9, oral 125 mg 4 times daily for 10 days, wet wt 91.7 mg): 1868 (91.7) μg/g | Vancomycin concn, Aliquot 2 ([1]; sample 9, subject F, day 9, oral 125 mg 4 times daily for 10 days, wet wt 68.4 mg): 1964 (68.4) μg/g | Vancomycin concn, Aliquot 3 ([1]; sample 9, subject F, day 9, oral 125 mg 4 times daily for 10 days, wet wt 80.2 mg): 1973 (80.2) μg/g | Vancomycin concn, Aliquot 2 ([1]; sample 10, subject D, day 10, oral 125 mg 4 times daily for 10 days, wet wt 34.7 mg): 1947 (34.7) μg/g | Vancomycin concn, Aliquot 3 ([1]; sample 10, subject D, day 10, oral 125 mg 4 times daily for 10 days, wet wt 57.0 mg): 1775 (57.0) μg/g | Vancomycin concn, Aliquot 2 ([1]; sample 11, subject D, day 11, oral 125 mg 4 times daily for 10 days, wet wt 62.7 mg): 1801 (62.7) μg/g | Vancomycin concn, Aliquot 3 ([1]; sample 11, subject D, day 11, oral 125 mg 4 times daily for 10 days, wet wt 64.0 mg): 1891 (64.0) μg/g | Vancomycin concn, Aliquot 2 ([1]; sample 12, subject F, day 11, oral 125 mg 4 times daily for 10 days, wet wt 47 mg): 1920 (47) μg/g | Vancomycin concn, Aliquot 3 ([1]; sample 12, subject F, day 11, oral 125 mg 4 times daily for 10 days, wet wt 54.2 mg): 1488 (54.2) μg/g | Vancomycin concn, Aliquot 2 ([1]; sample 14, subject F, day 12, oral 125 mg 4 times daily for 10 days, wet wt 60.8 mg): 1162 (60.8) μg/g | Vancomycin concn, Aliquot 3 ([1]; sample 14, subject F, day 12, oral 125 mg 4 times daily for 10 days, wet wt 74.6 mg): 1070 (74.6) μg/g | Vancomycin concn, Aliquot 3 ([1]; sample 15, subject D, day 12, oral 125 mg 4 times daily for 10 days, wet wt 59.4 mg): 1200 (59.4) μg/g | Vancomycin concn, Aliquot 2 ([1]; sample 15, subject D, day 12, oral 125 mg 4 times daily for 10 days, wet wt 90.1 mg): 1111 (90.1) μg/g | Lyophilized samples, Vanco conc ([2]; sample 6, subject E, day 8, oral 125 mg 4 times daily for 10 days, aliquot 1, wt 31 mg): 9,206 μg/g | Lyophilized samples, Vanco conc ([2]; sample 6, subject E, day 8, oral 125 mg 4 times daily for 10 days, aliquot 2, wt 58.2 mg): 10,109 μg/g | Lyophilized samples, Vanco conc, Mean ([2]; sample 6, subject E, day 8, oral 125 mg 4 times daily for 10 days, mean of 2 aliquots): 9,658 μg/g | Lyophilized samples, Vanco conc ([2]; sample 7, subject F, day 8, oral 125 mg 4 times daily for 10 days, aliquot 1, wt 44.6 mg): 8,614 μg/g | Lyophilized samples, Vanco conc ([2]; sample 7, subject F, day 8, oral 125 mg 4 times daily for 10 days, aliquot 2, wt 28.2 mg): 9,367 μg/g | Lyophilized samples, Vanco conc, Mean ([2]; sample 7, subject F, day 8, oral 125 mg 4 times daily for 10 days, mean of 2 aliquots): 8,991 μg/g | Lyophilized samples, Vanco conc ([2]; sample 8, subject E, day 9, oral 125 mg 4 times daily for 10 days, aliquot 1, wt 28.7 mg): 10,116 μg/g | Lyophilized samples, Vanco conc ([2]; sample 8, subject E, day 9, oral 125 mg 4 times daily for 10 days, aliquot 2, wt 39.4 mg): 9,445 μg/g | Lyophilized samples, Vanco conc, Mean ([2]; sample 8, subject E, day 9, oral 125 mg 4 times daily for 10 days, mean of 2 aliquots): 9,781 μg/g | Lyophilized samples, Vanco conc ([2]; sample 9, subject F, day 9, oral 125 mg 4 times daily for 10 days, aliquot 1, wt 26.7 mg): 9,745 μg/g | Lyophilized samples, Vanco conc ([2]; sample 9, subject F, day 9, oral 125 mg 4 times daily for 10 days, aliquot 2, wt 43.3 mg): 8,981 μg/g | Lyophilized samples, Vanco conc ([2]; sample 9, subject F, day 9, oral 125 mg 4 times daily for 10 days, aliquot 3, wt 60.8 mg): 8,935 μg/g | Lyophilized samples, Vanco conc, Mean ([2]; sample 9, subject F, day 9, oral 125 mg 4 times daily for 10 days, mean of 3 aliquots): 9,220 μg/g | Lyophilized samples, Vanco conc ([2]; sample 10, subject D, day 10, oral 125 mg 4 times daily for 10 days, aliquot 1, wt 41.2 mg): 7,501 μg/g | Lyophilized samples, Vanco conc ([2]; sample 10, subject D, day 10, oral 125 mg 4 times daily for 10 days, aliquot 2, wt 75.3 mg): 6,911 μg/g | Lyophilized samples, Vanco conc, Mean ([2]; sample 10, subject D, day 10, oral 125 mg 4 times daily for 10 days, mean of 2 aliquots): 7,206 μg/g | Lyophilized samples, Vanco conc ([2]; sample 11, subject D, day 11, oral 125 mg 4 times daily for 10 days, aliquot 1, wt 51.9 mg): 7,688 μg/g | Lyophilized samples, Vanco conc ([2]; sample 11, subject D, day 11, oral 125 mg 4 times daily for 10 days, aliquot 2, wt 36.8 mg): 8,166 μg/g | Lyophilized samples, Vanco conc ([2]; sample 11, subject D, day 11, oral 125 mg 4 times daily for 10 days, aliquot 3, wt 30 mg): 6,457 μg/g | Lyophilized samples, Vanco conc, Mean ([2]; sample 11, subject D, day 11, oral 125 mg 4 times daily for 10 days, mean of 3 aliquots): 7,437 μg/g | Lyophilized samples, Vanco conc ([2]; sample 12, subject F, day 11, oral 125 mg 4 times daily for 10 days, aliquot 1, wt 12.7 mg): 9,026 μg/g | Lyophilized samples, Vanco conc ([2]; sample 12, subject F, day 11, oral 125 mg 4 times daily for 10 days, aliquot 2, wt 32.6 mg): 8,563 μg/g | Lyophilized samples, Vanco conc ([2]; sample 12, subject F, day 11, oral 125 mg 4 times daily for 10 days, aliquot 3, wt 49.2 mg): 6,962 μg/g | Lyophilized samples, Vanco conc, Mean ([2]; sample 12, subject F, day 11, oral 125 mg 4 times daily for 10 days, mean of 3 aliquots): 8,184 μg/g | Lyophilized samples, Vanco conc ([2]; sample 14, subject F, day 12, oral 125 mg 4 times daily for 10 days, aliquot 1, wt 19 mg): 6,748 μg/g | Lyophilized samples, Vanco conc ([2]; sample 14, subject F, day 12, oral 125 mg 4 times daily for 10 days, aliquot 2, wt 37.1 mg): 5,810 μg/g | Lyophilized samples, Vanco conc ([2]; sample 14, subject F, day 12, oral 125 mg 4 times daily for 10 days, aliquot 3, wt 56.2 mg): 5,803 μg/g | Lyophilized samples, Vanco conc, Mean ([2]; sample 14, subject F, day 12, oral 125 mg 4 times daily for 10 days, mean of 3 aliquots): 6,120 μg/g | Lyophilized samples, Vanco conc ([2]; sample 15, subject D, day 12, oral 125 mg 4 times daily for 10 days, aliquot 1, wt 41.6 mg): 5,058 μg/g | Lyophilized samples, Vanco conc ([2]; sample 15, subject D, day 12, oral 125 mg 4 times daily for 10 days, aliquot 2, wt 38.5 mg): 4,941 μg/g | Lyophilized samples, Vanco conc ([2]; sample 15, subject D, day 12, oral 125 mg 4 times daily for 10 days, aliquot 3, wt 44.1 mg): 4,921 μg/g | Lyophilized samples, Vanco conc, Mean ([2]; sample 15, subject D, day 12, oral 125 mg 4 times daily for 10 days, mean of 3 aliquots): 4,973 μg/g | Day 0, vancomycin concn ([3]; clinical stool sample 5): 269 ± 3 µg/g | Day 48, vancomycin concn ([3]; clinical stool sample 5): 259 ± 14 µg/g | Day 0, vancomycin concn ([3]; clinical stool sample 9): 1,897 ± 7 μg/g | Day 48, vancomycin concn ([3]; clinical stool sample 9): 1,905 ± 12 μg/g | Day 0, vancomycin concn ([3]; clinical stool sample 14): 1,211 ± 8 μg/g | Day 48, vancomycin concn ([3]; clinical stool sample 14): 1,220 ± 11 μg/g | stability of vancomycin concentrations in stool over time ([3]; clinical stool samples, up to 49 days studied): stable over time up to 49 days | Fecal vancomycin concentration (Mean ± SD), Previous method ([4]; clinical sample 5, two aliquots): 267 ± 45 µg/mL | Fecal vancomycin concentration (Mean ± SD), Previous method ([4]; clinical sample 6, two aliquots): 2,045±100 µg/ml | Fecal vancomycin concentration (Mean ± SD), Previous method ([4]; clinical sample 8, two aliquots): 2,110±23 µg/ml | Fecal vancomycin concentration (Mean ± SD), Previous method ([4]; clinical sample 9, two aliquots): 2,106±33 µg/ml | Fecal vancomycin concentration (Mean ± SD), Previous method ([4]; clinical sample 12, two aliquots): 1,771±11 µg/ml | Fecal vancomycin concentration (Mean ± SD), Previous method ([4]; clinical sample 14, two aliquots): 1,253±47 µg/ml | water solubility (in words) [5]: water-soluble | hydrophilicity (in words) ([5]; general statement of the discussion, no reference given): hydrophilic drug | typical fecal vancomycin level after standard oral vancomycin administration [6]: > 100 µg/mL | absorption from the human gastrointestinal (GI) tract (in words) ([6]; oral, mainly excreted into the stool): absorbed minimally
